# Reference: ChEMBL document CHEMBL5608170, “An insight into sustainable and green chemistry approaches for the synthesis of quinoline derivatives as anticancer agents” (Eur J Med Chem, 2024)
# *1 amine or outer side, *2 acyl side, *3 side chain or, on linkers, in order; H or OH if unused. Where a SMILES comes first, the peptide text is derived from it. Bridges are numbered along the chain shown (N, C = ends). Roman numbers before positions name the chains, in order. [ ]: non-standard residue; d: D form. Actinocin(1to9) = Cc1c2oc3c(C)ccc(C(=O)[*:2])c3nc-2c(C(=O)[*:1])c(N)c1=O; NMeV = CN[C@H](C(=O)O)C(C)C; Sar = CNCC(=O)O
# Tests used:
# HepG2 = assay: Cytotoxicity against human HepG2 cells assessed as reduction in cell viability incubated for 24 hrs by MTT assay; assay type: functional, cell-based; conditions: HepG2, 24 h
# HCT-116 = assay: Cytotoxicity against human HCT-116 cells assessed as reduction in cell viability incubated for 24 hrs by MTT assay; assay type: functional, cell-based; conditions: HCT-116, 24 h
# A549 [1] = assay: Cytotoxicity against human A549 cells assessed as reduction in cell viability incubated for 24 hrs by MTT assay; assay type: functional, cell-based; conditions: A549, 24 h
# MCF7 [2] = assay: Cytotoxicity against human MCF7 cells assessed as reduction in cell viability incubated for 24 hrs by MTT assay; assay type: functional, cell-based; conditions: MCF7, 24 h
# MDA-MB-231 = assay: Cytotoxicity against human MDA-MB-231 cells assessed as reduction in cell viability incubated for 48 hrs by MTT assay; assay type: functional, cell-based; conditions: MDA-MB-231, 48 h
# A549 [3] = assay: Cytotoxicity against human A549 cells assessed as reduction in cell viability incubated for 72 hrs by MTT assay; assay type: functional, cell-based; conditions: A549, 72 h
# HT-29 = assay: Cytotoxicity against human HT-29 cells assessed as reduction in cell viability incubated for 72 hrs by MTT assay; assay type: functional, cell-based; conditions: HT-29, 72 h
# NCI-H460 = assay: Antiproliferative activity against human NCI-H460 cells assessed as reduction in cell viability by MTT assay; assay type: functional, cell-based
# A549 [4] = assay: Antiproliferative activity against human A549 cells assessed as reduction in cell viability by MTT assay; assay type: functional, cell-based
# K562 = assay: Growth inhibition of human K562 cells at 10 uM incubated for 24 hrs by MTT assay; assay type: functional; conditions: read-out: GI
# PC-3 = assay: Cytotoxicity against human PC-3 cells assessed as reduction in cell growth measured for 48 hrs by MTT assay; assay type: functional, cell-based; conditions: PC-3, 48 h
# DU-145 = assay: Cytotoxicity against human DU-145 cells assessed as reduction in cell growth measured for 48 hrs by MTT assay; assay type: functional, cell-based; conditions: DU-145, 48 h
# MCF7 [5] = assay: Cytotoxicity against human MCF7 cells assessed as reduction in cell viability by MTT assay; assay type: functional, cell-based
# WiDr = assay: Growth inhibition of human WiDr cells; assay type: functional
# HeLa = assay: Growth inhibition of human HeLa cells; assay type: functional
# SW1573 = assay: Growth inhibition of human SW1573 cells; assay type: functional
# HBL-100 = assay: Growth inhibition of human HBL-100 cells; assay type: functional
# A549 [6] = assay: Growth inhibition of human A549 cells; assay type: functional
# T47D = assay: Growth inhibition of human T47D cells; assay type: functional
# B16-F10 = assay: Cytotoxicity against mouse B16-F10 cells assessed as reduction in cell viability incubated for 48 hrs by MTT assay; assay type: functional, cell-based; conditions: B16-F10, 48 h
smiles,measurement,setting,value
N#CC1=C(N)Oc2c(cc(Cl)c3cccnc23)C1c1cccc(Cl)c1Cl (stereo unspecified),IC50,HepG2,1.48 µg/mL
same,IC50,HCT-116,7.94 µg/mL
same,IC50,A549 [1],15.6 µg/mL
same,IC50,MCF7 [2],2.47 µg/mL
COc1ncccc1-c1cc(-c2cn(Cc3ccccc3F)nn2)cc2ccc(C)nc12,IC50,MDA-MB-231,19.8 µM
N#CC1=C(N)Oc2c(ccc3cccnc23)C1c1cccc(Cl)c1 (stereo unspecified),IC50,HepG2,1.87 µg/mL
same,IC50,HCT-116,1.35 µg/mL
same,IC50,A549 [1],1.23 µg/mL
same,IC50,MCF7 [2],1.42 µg/mL
N#CC1=C(N)Oc2c(cc(Cl)c3cccnc23)C1c1cccc(Cl)c1 (stereo unspecified),IC50,HepG2,0.7 µg/mL
same,IC50,HCT-116,3.04 µg/mL
same,IC50,A549 [1],2.67 µg/mL
same,IC50,MCF7 [2],0.9 µg/mL
COc1cc(/C=C2\OCc3nc4ccccc4c(C)c3C2=O)cc(OC)c1OC,IC50,A549 [3],3.68 µg/mL
same,IC50,HT-29,6.69 µg/mL
COc1ccc(Nc2nc3ccccc3c(Nc3ccc(OC)cc3)c2[N+](=O)[O-])cc1,IC50,NCI-H460,7.1 µM
same,IC50,A549 [4],11.2 µM
COc1ccc(-c2cn3c4c(cccc24)CCC3)cc1,inhibition of growth at 10 µM,K562,66%
COc1cc(/C=C2\OCc3nc4ccccc4c(-c4ccccc4)c3C2=O)cc(OC)c1OC,IC50,A549 [3],4.82 µg/mL
same,IC50,HT-29,7.69 µg/mL
O=C1N(c2ccccc2S)c2[nH]c(=O)[nH]c(=O)c2C12c1ccccc1Nc1c2[nH]c(=O)[nH]c1=O (stereo unspecified),IC50,PC-3,18.4 µM
same,IC50,DU-145,17.7 µM
COC(=O)c1c(C(F)(F)F)nc2c(c1-c1ccc(S(=O)(=O)c3ccccc3)cc1)C(=O)CC(C)(C)C2,IC50,MCF7 [5],0.002 µM
N#CC1=C(N)Oc2c(cc(Cl)c3cccnc23)C1c1ccc(Cl)cc1Cl (stereo unspecified),IC50,HepG2,0.87 µg/mL
same,IC50,HCT-116,3.01 µg/mL
same,IC50,A549 [1],1.79 µg/mL
same,IC50,MCF7 [2],1.18 µg/mL
COc1cc2nccc(Oc3ccc(NC(=O)C4(C(=O)Nc5ccc(F)cc5)CC4)cc3)c2cc1OC [CABOZANTINIB],GI50,WiDr,14 µM
same,GI50,HeLa,11 µM
same,GI50,SW1573,6 µM
same,GI50,HBL-100,17 µM
same,GI50,A549 [6],9.5 µM
same,GI50,T47D,16 µM
COc1cc2c(Oc3ccc4[nH]c(C)cc4c3F)ccnc2cc1OCC1(N)CC1 [CATEQUENTINIB],IC50,MDA-MB-231,17 µM
"Cc1c2oc3c(C)ccc(C(=O)N[C@@H]4C(=O)N[C@H](C(C)C)C(=O)N5CCC[C@H]5C(=O)N(C)CC(=O)N(C)[C@@H](C(C)C)C(=O)O[C@@H]4C)c3nc-2c(C(=O)N[C@@H]2C(=O)N[C@H](C(C)C)C(=O)N3CCC[C@H]3C(=O)N(C)CC(=O)N(C)[C@@H](C(C)C)C(=O)O[C@@H]2C)c(N)c1=O [DACTINOMYCIN] (I: T[dV]P[Sar][NMeV] / II: T[dV]P[Sar][NMeV]; ester I:1-I:C, II:1-II:C; linker I:N-II:N via Actinocin(1to9))",IC50,B16-F10,13.4 µM
COc1cc2nccc(Oc3ccc(NC(=O)NC4CC4)c(Cl)c3)c2cc1C(N)=O [LENVATINIB],GI50,WiDr,19 µM
same,GI50,HeLa,4 µM
same,GI50,SW1573,8 µM
same,GI50,HBL-100,10 µM
same,GI50,A549 [6],12 µM
same,GI50,T47D,10 µM
CNC(=O)c1cccc2cc(Oc3ccnc4cc(OCC5(N)CC5)c(OC)cc34)ccc12 [LUCITANIB],IC50,B16-F10,16.3 µM
CCOc1cc2ncc(C#N)c(Nc3ccc(OCc4ccccn4)c(Cl)c3)c2cc1NC(=O)/C=C/CN(C)C [NERATINIB],GI50,HBL-100,1.6 µM
CCOc1cc2ncc(C#N)c(Nc3ccc(F)c(Cl)c3)c2cc1NC(=O)/C=C/CN(C)C [PELITINIB],GI50,WiDr,12 µM
same,GI50,HeLa,8.3 µM
same,GI50,SW1573,20 µM
same,GI50,HBL-100,19 µM
same,GI50,A549 [6],7.7 µM
same,GI50,T47D,16 µM
COC1=C(N)C(=O)c2nc(-c3nc(C(=O)O)c(C)c(-c4ccc(OC)c(OC)c4O)c3N)ccc2C1=O [STREPTONIGRIN],IC50,MDA-MB-231,30.5 µM
COc1cc2nccc(Oc3ccc(NC(=O)Nc4cc(C)on4)c(Cl)c3)c2cc1OC [TIVOZANIB],IC50,B16-F10,18.8 µM
